Reference: patent publication US20240148776A1, “TUMESCENT SOLUTION WITH B VITAMINS” (priority 2022, published 2024)

Legend:
[1] = tested on: postherpetic neuralgia (PHN); experiment: Tumescent treatment of patients with established postherpetic neuralgia (PHN); assay type: in vivo, human; conditions: B12 added to TEL[AT] in acute zoster
Excerpt: “Hotspot pain” is the area within the dermatome where the zoster pain is clearly the most intense. […] “Elsewhere pain” is zoster pain that affects areas within the dermatome other than the hotspot.

[2] = Stability of vitamin B12 for injection and of its pink colour; assay type: physicochemical
Experimental: When Klein placed a purchase order for their first vial of injectable B12, they had no idea that the solution would have a red/pink color. When 10 mg in 10 ml of B12 was added to 1,000 ml of TELTA (1:100 dilution of B12), the result was a TELTAB solution with a distinctive pink color. […] They thought the novel pink color would be memorable and an interesting topic of conversation. […] The next conceptual step was the idea that the pink color of TELTAB might be a clever marketing gimmick, which could distinguish TELTAB from all other bags of saline.

[3] = tested on: acute Herpes zoster (shingles); conditions: cited from earlier work

Molecule | incidence of PHN [1] | stability of pink pigment over time [2] | stability of nutritional function on exposure to light ([2]; light) | effect on pain of acute Herpes zoster compared to placebo ([3]; B12 1 mg/ml, 2 weeks) | reduction of zoster-related intensely painful itching compared to placebo ([3]; 2-week protocol of multiple daily injections) [%]
Cobalamin [B12] | reduced the incidence of PHN | does not appear to fade over time | not stable when exposed to light | gradually reduce the pain of acute Herpes zoster | 
Cc1ncc(C[n+]2csc(CCO)c2C)c(N)n1 [Undiluted vitamin B1, Thiamine] |  |  |  |  | 30
